Test results published in the NIST ThermoML archive (doi:10.1016/j.jct.2012.06.031).
± gives the expanded uncertainty stated by the source.

Key:
[1] = refractive index (Na D-line) (dimensionless); conditions: 101.33 kPa, Liquid, Standard Abbe refractometry
[2] = 101 kPa, Liquid; for viscosity: Concentric cylinders viscometry; for mass density: Vibrating tube method
[3] = xn = mol fraction of the nth substance listed; conditions: 101 kPa, Liquid; for viscosity: Concentric cylinders viscometry; for mass density: Vibrating tube method
[4] = refractive index (Na D-line) (dimensionless); xn = mol fraction of the nth substance listed; conditions: 101 kPa, Liquid, Standard Abbe refractometry

OCCCO [propan-1,3-diol]
Conditions	mass density, [2] [kg/m3]	refractive index, [1]	viscosity, [2] [mPa·s]
288.15 K	1056.12 ± 0.95	1.44089 ± 0.00051	66.53 ± 0.72
293.15 K	1053.02 ± 0.95	1.43947 ± 0.00051	51.91 ± 0.53
298.15 K	1049.91 ± 0.94	1.43805 ± 0.00051	41.04 ± 0.44
303.15 K	1046.79 ± 0.93	1.43665 ± 0.00051	32.84 ± 0.35
308.15 K	1043.64 ± 0.93	1.43526 ± 0.00051	26.58 ± 0.28
313.15 K	1040.49 ± 0.92	1.43387 ± 0.00051	21.74 ± 0.23
318.15 K	1037.31 ± 0.91	1.43244 ± 0.00051	17.95 ± 0.19
323.15 K	1034.12 ± 0.91	1.43099 ± 0.00051	14.96 ± 0.16

c1ccncc1 [pyridine]
Conditions	mass density, [2] [kg/m3]	refractive index, [1]	viscosity, [2] [mPa·s]
288.15 K	988.061 ± 0.12	1.51184 ± 0.00031	1.03 ± 0.0089
293.15 K	983.038 ± 0.12	1.509 ± 0.00031	0.9588 ± 0.0087
298.15 K	978.006 ± 0.12	1.50616 ± 0.00031	0.8943 ± 0.0086
303.15 K	972.967 ± 0.12	1.50331 ± 0.00031	0.8355 ± 0.0085
308.15 K	967.913 ± 0.12	1.50048 ± 0.00031	0.7837 ± 0.0084
313.15 K	962.849 ± 0.12	1.49769 ± 0.00031	0.7354 ± 0.0083
318.15 K	957.769 ± 0.12	1.49493 ± 0.00031	0.6912 ± 0.0082
323.15 K	952.673 ± 0.12	1.49219 ± 0.00031	0.6507 ± 0.0081

CC(O)CO (stereo unspecified) [1,2-propanediol]
Conditions	mass density, [2] [kg/m3]	refractive index, [1]	viscosity, [2] [mPa·s]
288.15 K	1040.08 ± 0.14	1.43411 ± 0.00033	81.21 ± 0.6
293.15 K	1036.46 ± 0.14	1.43247 ± 0.00033	58.75 ± 0.25
298.15 K	1032.8 ± 0.14	1.43081 ± 0.00033	43.44 ± 0.2
303.15 K	1029.09 ± 0.14	1.42915 ± 0.00033	32.75 ± 0.15
308.15 K	1025.34 ± 0.13	1.42751 ± 0.00033	25.16 ± 0.12
313.15 K	1021.55 ± 0.13	1.42581 ± 0.00033	19.65 ± 0.092
318.15 K	1017.73 ± 0.13	1.42407 ± 0.00033	15.58 ± 0.071
323.15 K	1013.86 ± 0.13	1.4223 ± 0.00033	12.55 ± 0.058

CCCO [propan-1-ol] + c1ccncc1
x2 = 0
Conditions	mass density, [3] [kg/m3]	refractive index, [4]	viscosity, [3] [mPa·s]
288.15 K	807.947 ± 0.15	1.3878 ± 0.00031	2.514 ± 0.013
293.15 K	803.963 ± 0.15	1.38576 ± 0.00031	2.208 ± 0.012
298.15 K	799.953 ± 0.15	1.38369 ± 0.00031	1.95 ± 0.011
303.15 K	795.915 ± 0.15	1.38162 ± 0.00031	1.727 ± 0.011
308.15 K	791.84 ± 0.15	1.37918 ± 0.00031	1.542 ± 0.01
313.15 K	787.721 ± 0.15	1.37695 ± 0.00031	1.378 ± 0.0097
318.15 K	783.553 ± 0.15	1.37469 ± 0.00031	1.236 ± 0.0094
323.15 K	779.334 ± 0.15	1.37231 ± 0.00031	1.124 ± 0.0091

CCCO [propan-1-ol]
Conditions	mass density, [2] [kg/m3]	refractive index, [1]	viscosity, [2] [mPa·s]
288.15 K	807.947 ± 0.15	1.3878 ± 0.00031	2.514 ± 0.013
293.15 K	803.963 ± 0.15	1.38576 ± 0.00031	2.208 ± 0.012
298.15 K	799.953 ± 0.15	1.38369 ± 0.00031	1.95 ± 0.011
303.15 K	795.915 ± 0.15	1.38162 ± 0.00031	1.727 ± 0.011
308.15 K	791.84 ± 0.15	1.37918 ± 0.00031	1.542 ± 0.01
313.15 K	787.721 ± 0.15	1.37695 ± 0.00031	1.378 ± 0.0097
318.15 K	783.553 ± 0.15	1.37469 ± 0.00031	1.236 ± 0.0094
323.15 K	779.334 ± 0.15	1.37231 ± 0.00031	1.124 ± 0.0091

OCC(O)CO [glycerol] + c1ccncc1
x2 = 0
Conditions	mass density, [3] [kg/m3]	refractive index, [4]	viscosity, [3] [mPa·s]
288.15 K	1264.08 ± 0.22	1.47552 ± 0.00033	2298.3 ± 120
293.15 K	1261.03 ± 0.22	1.47427 ± 0.00033	1425.1 ± 65
298.15 K	1257.94 ± 0.22	1.47301 ± 0.00033	911.98 ± 36
303.15 K	1254.83 ± 0.22	1.47175 ± 0.00033	600.83 ± 20
308.15 K	1251.68 ± 0.21	1.47048 ± 0.00033	406.93 ± 12
313.15 K	1248.48 ± 0.21	1.4692 ± 0.00033	282.61 ± 6.7
318.15 K	1245.24 ± 0.21	1.46791 ± 0.00033	201.03 ± 3.9
323.15 K	1242.08 ± 0.21	1.46674 ± 0.00033	147.15 ± 2.2

OCC(O)CO [glycerol]
Conditions	mass density, [2] [kg/m3]	refractive index, [1]	viscosity, [2] [mPa·s]
288.15 K	1264.08 ± 0.22	1.47552 ± 0.00033	2298.3 ± 120
293.15 K	1261.03 ± 0.22	1.47427 ± 0.00033	1425.1 ± 65
298.15 K	1257.94 ± 0.22	1.47301 ± 0.00033	911.98 ± 36
303.15 K	1254.83 ± 0.22	1.47175 ± 0.00033	600.83 ± 20
308.15 K	1251.68 ± 0.21	1.47048 ± 0.00033	406.93 ± 12
313.15 K	1248.48 ± 0.21	1.4692 ± 0.00033	282.61 ± 6.7
318.15 K	1245.24 ± 0.21	1.46791 ± 0.00033	201.03 ± 3.9
323.15 K	1242.08 ± 0.21	1.46674 ± 0.00033	147.15 ± 2.2

c1ccncc1 [pyridine] + OCCCO
x1 = 1
Conditions	mass density, [3] [kg/m3]	refractive index, [4]	viscosity, [3] [mPa·s]
288.15 K	988.061 ± 0.12	1.51184 ± 0.00031	1.03 ± 0.0089
293.15 K	983.038 ± 0.12	1.509 ± 0.00031	0.9588 ± 0.0087
298.15 K	978.006 ± 0.12	1.50616 ± 0.00031	0.8943 ± 0.0086
303.15 K	972.967 ± 0.12	1.50331 ± 0.00031	0.8355 ± 0.0085
308.15 K	967.913 ± 0.12	1.50048 ± 0.00031	0.7837 ± 0.0084
313.15 K	962.849 ± 0.12	1.49769 ± 0.00031	0.7354 ± 0.0083
318.15 K	957.769 ± 0.12	1.49493 ± 0.00031	0.6912 ± 0.0082
323.15 K	952.673 ± 0.12	1.49219 ± 0.00031	0.6507 ± 0.0081

c1ccncc1 [pyridine] + CC(O)CO
x1 = 1
Conditions	mass density, [3] [kg/m3]	refractive index, [4]	viscosity, [3] [mPa·s]
288.15 K	988.061 ± 0.12	1.51184 ± 0.00031	1.03 ± 0.0089
293.15 K	983.038 ± 0.12	1.509 ± 0.00031	0.9588 ± 0.0087
298.15 K	978.006 ± 0.12	1.50616 ± 0.00031	0.8943 ± 0.0086
303.15 K	972.967 ± 0.12	1.50331 ± 0.00031	0.8355 ± 0.0085
308.15 K	967.913 ± 0.12	1.50048 ± 0.00031	0.7837 ± 0.0084
313.15 K	962.849 ± 0.12	1.49769 ± 0.00031	0.7354 ± 0.0083
318.15 K	957.769 ± 0.12	1.49493 ± 0.00031	0.6912 ± 0.0082
323.15 K	952.673 ± 0.12	1.49219 ± 0.00031	0.6507 ± 0.0081
